Results as given in ChEMBL document CHEMBL1148133, “New diterpene glycosides of the fungus Acremonium striatisporum isolated from a sea cucumber” (J Nat Prod, 2002).
≈ marks a conversion by molar mass, not a printed value.

How the values were obtained:
[1] = Cytotoxicity against mouse EAC; format: functional, cell-based; conditions: Ehrlich
[2] = Cytotoxicity against Strongylocentrotus intermedius developing egg; format: functional

## C=C[C@]1(C)C=C2[C@H](O)C[C@@H]3[C@](C)(CC[C@H](O)[C@]3(C)CO[C@@H]3O[C@H](CO)[C@@H](O)[C@@H](O)[C@@H]3O)[C@H]2CC1 [VIRESCENOSIDE O]
[1]
  IC50: 20 µM

## C=C[C@@]1(C)CCC2=C(C1)C(=O)C[C@H]1[C@@](C)(CO[C@@H]3O[C@H](CO)[C@@H](O)[C@@H](O)[C@@H]3O)[C@@H](O)CC[C@]21C [VIRESCENOSIDE P]
[1]
  IC50: 20 µM
[2]
  MIC: 5 µM (≈ 2.4 µg/mL)

## C=C[C@@]1(C)CC[C@H]2C(=CC[C@@H]3[C@]2(C)CC[C@H](O)[C@]3(C)CO[C@@H]2O[C@H](CO)[C@@H](O)[C@H](O)[C@@H]2O)C1 [VIRESCENOSIDE Q]
[1]
  IC50: 20 µM
